This experiment has as its target Autotaxin (ENPP2) (Mus musculus) (UniProt Q9R1E6). Put plainly: Inhibition of recombinant mouse N-terminal polyHis-tagged ATX-beta (Ser49 to Ile862 residues) expressed in HEK293 cells assessed as reduction in cleavage of LPC into LPA and choline using LPC(16:0) as substrate by Amplex red reagent based fluorescence assay.
One may read the IC50 as the concentration that inhibits the measured activity by half. On to `O=C(O)c1ccc(COc2ccc(CNC(=O)[C@@H]3CCC(=O)N3Cc3ccccc3)cc2)cc1`, for which the IC50 came to 4.5 µM.

Turning to `O=C(O)c1ccc(COc2ccc(CNC(=O)[C@H]3CCC(=O)N3Cc3ccccc3)cc2)cc1`, the half-maximal inhibitory concentration (IC50) was more than 5 µM.

For `O=C(O)c1ccc(COc2ccc(CNC(=O)[C@@H]3CCC(=O)N3Cc3ccc(Br)cc3)cc2)cc1`, the IC50 was more than 5 µM.

On to `O=C(O)c1ccc(COc2ccc(CNC(=O)[C@@H]3CCC(=O)N3Cc3ccc(F)cc3)cc2)cc1`, for which the IC50 was more than 5 µM.

For the molecule `O=C(O)c1ccc(COc2ccc(CNC(=O)[C@@H]3CCC(=O)N3Cc3ccc(C(F)(F)F)cc3)cc2)cc1`, the IC50 was more than 5 µM.

On to `O=C1CC[C@@H](C(=O)NCc2ccc(OCc3ccc(C(=O)O)cc3)cc2)N1`, for which the IC50 is more than 5 µM.

Turning to `COC(=O)c1ccc(COc2ccc(CNC(=O)[C@@H]3CCC(=O)N3Cc3ccccc3)cc2)cc1`, the IC50 is more than 5 µM.

Regarding `NS(=O)(=O)c1ccc(COc2ccc(CNC(=O)[C@@H]3CCC(=O)N3Cc3ccccc3)cc2)cc1`, the IC50 was more than 5 µM.

Regarding `NS(=O)(=O)c1ccc(COc2ccc(CNC(=O)[C@@H]3CCC(=O)N3Cc3ccc(F)cc3)cc2)cc1`, the IC50 was more than 5 µM.

Consider `NS(=O)(=O)c1ccc(COc2ccc(CNC(=O)[C@@H]3CCC(=O)N3Cc3ccc(C(F)(F)F)cc3)cc2)cc1`, for which the IC50 was more than 5 µM.

On to `CC1(C)OB(c2ccc(COc3ccc(CNC(=O)[C@@H]4CCC(=O)N4Cc4ccccc4)cc3)cc2)OC1(C)C`, for which the IC50 is 0.05 µM.

As for `CC1(C)OB(c2ccc(COc3ccc(CNC(=O)[C@@H]4CCC(=O)N4Cc4ccc(F)cc4)cc3)cc2)OC1(C)C`, the IC50 worked out at 0.12 µM.

Take `CC1(C)OB(c2ccc(COc3ccc(CNC(=O)[C@H]4CCC(=O)N4Cc4ccccc4)cc3)cc2)OC1(C)C`: the IC50 was 0.18 µM.

Take `O=C(NCc1ccc(OCc2ccccc2)cc1)[C@@H]1CCC(=O)N1Cc1ccccc1`: the IC50 was more than 5 µM.

For `O=C(NCCc1c[nH]cn1)c1ccc(COc2ccc(CNC(=O)[C@@H]3CCC(=O)N3Cc3ccccc3)cc2)cc1`, the half-inhibitory concentration (IC50) is more than 5 µM.

Take `O=C(NCCc1c[nH]cn1)c1ccc(COc2ccc(CNC(=O)[C@@H]3CCC(=O)N3Cc3ccc(F)cc3)cc2)cc1`: the 50% inhibitory concentration (IC50) was more than 5 µM.

Regarding `O=C(NO)c1ccc(COc2ccc(CNC(=O)[C@@H]3CCC(=O)N3Cc3ccccc3)cc2)cc1`, the IC50 was determined as 0.7 µM.

As for `O=C(NCc1ccc(OCc2ccc(-c3nn[nH]n3)cc2)cc1)[C@@H]1CCC(=O)N1Cc1ccccc1`, the IC50 is more than 5 µM.

For `O=C(NCc1ccc(OCc2ccc(-c3nn[nH]n3)cc2)cc1)[C@@H]1CCC(=O)N1Cc1ccc(F)cc1`, the IC50 was more than 5 µM.

In the case of `O=C(NCc1ccc(OCc2cn(-c3ccccc3)nn2)cc1)[C@@H]1CCC(=O)N1Cc1ccccc1`, the IC50 is more than 5 µM.

As for `O=C(NCc1ccc(OCc2ccncc2)cc1)[C@@H]1CCC(=O)N1Cc1ccccc1`, the IC50 was more than 5 µM.

In the case of `O=C(NCc1ccc(OCc2ccc(B(O)O)cc2)cc1)[C@@H]1CCC(=O)N1Cc1ccccc1`, the IC50 came to 0.035 µM.

Consider `O=C(O)c1ccc(COc2ccc(CN3C(=O)CC[C@H]3C(=O)NCc3ccccc3)cc2)cc1`, for which the IC50 was more than 5 µM.

Consider `O=C(NCc1ccccc1)[C@@H]1CCC(=O)N1Cc1ccc(OCc2ccc(-c3nn[nH]n3)cc2)cc1`, for which the IC50 was more than 5 µM.

Regarding `NS(=O)(=O)c1ccc(C(=O)NC[C@@H]2CCC(=O)N2Cc2ccccc2)cc1`, the IC50 is more than 5 µM.

Regarding `COC(=O)c1ccc(COc2ccc(CN3C(=O)CC[C@H]3Cn3ccnc3)cc2)cc1`, the IC50 is more than 5 µM.

As to `O=C(O)c1ccc(COc2ccc(CN3C(=O)CC[C@H]3Cn3ccnc3)cc2)cc1`, the IC50 was more than 5 µM.

As for `O=C(NCc1ccccc1)[C@@H]1CCC(=O)N1Cc1ccccc1`, the IC50 is more than 5 µM.

Regarding `O=C(NCc1ccc(O)cc1)[C@@H]1CCC(=O)N1Cc1ccccc1`, the IC50 is more than 5 µM.

For the molecule `O=C(O)c1ccc(COc2ccc(CNC(=O)[C@@H]3CCCN3Cc3ccccc3)cc2)cc1`, the IC50 was more than 5 µM.

Take `O=C(O)c1ccc(COc2ccc(CNC(=O)[C@@H]3CCCN3Cc3ccc(F)cc3)cc2)cc1`: the IC50 was found to be 0.8 µM.

Take `O=C(O)c1ccc(COc2ccc(CNC(=O)[C@H]3CCCN3Cc3ccc(F)cc3)cc2)cc1`: the IC50 was more than 5 µM.

`O=C(NCc1ccc(OCc2ccc(-c3nn[nH]n3)cc2)cc1)[C@@H]1CCCN1Cc1ccccc1`: the IC50 is more than 5 µM.

On to `O=C(O)c1ccc(COc2ccc(CN3CCC[C@H]3C(=O)NCc3ccccc3)cc2)cc1`, for which the IC50 is more than 5 µM.

For `O=C(NCc1ccccc1)[C@@H]1CCCN1Cc1ccc(OCc2ccc(-c3nn[nH]n3)cc2)cc1`, the IC50 was more than 5 µM.

The values above are taken from BindingDB's records for doi:10.1016/j.bmc.2019.115216 (National and Kapodistrian University of Athens, 2020).
